One series has as its target T1, IL-17A/A (Homo sapiens, UniProt Q16552).
T1 construct: purchased Genscript Z03228
T1 sequence (Q16552 24-155): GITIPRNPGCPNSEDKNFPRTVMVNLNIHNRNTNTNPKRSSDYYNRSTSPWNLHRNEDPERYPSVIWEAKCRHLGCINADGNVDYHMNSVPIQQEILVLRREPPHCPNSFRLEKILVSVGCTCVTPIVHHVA
In words: IL-17A/A HEK-Blue cell assay (SEAP reporter). The note with it: HEK-Blue IL-17A reporter cells, IL17A/A 5 ng/mL, 20 hours, SEAP read at A630; read-out: HEK-Blue IL17AA (IC50 for IL-17A/A inhibition). The format is cell-based.

A further series has as its target T2, IL-17A/F (Homo sapiens, UniProt Q16552+Q96PD4).
T2 construct: purchased R&D Systems
T2 sequence (Q16552 24-155): T1 sequence (Q16552 24-155)
T2 sequence (Q96PD4 31-163): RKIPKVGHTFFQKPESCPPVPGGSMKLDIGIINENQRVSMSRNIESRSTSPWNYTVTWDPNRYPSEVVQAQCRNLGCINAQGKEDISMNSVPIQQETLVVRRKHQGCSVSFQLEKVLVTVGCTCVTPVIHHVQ
The series is described as follows: IL-17A/F HEK-Blue cell assay (SEAP reporter). The series is classed as cell-based. As to conditions: HEK-Blue IL-17A reporter cells, IL17A/F 5 ng/mL, 20 hours, SEAP read at A630; read-out: HEK-Blue IL17AF (IC50 for IL-17A/F inhibition).

Series [1] is described as follows: Mouse oral bioavailability. The series is classed as in vivo. The note with it: C57BL/6J mice, PO 10 mg/kg vs IV 1 mg/kg, plasma AUC, read-out: % F (Mouse), oral bioavailability. How it is done:
The test compound is administered to C57BL/6J mice intravenously (IV) at 1 mg/kg or orally (PO) at 10 mg/kg using vehicles composed of 10% DMA, 70% Polyethylene glycol 400, and 20% purified water; or 10% DMA, 50% Polyethylene glycol 400, and 40% purified water. Serial blood collections occur at 0.08, 0.25, 0.5, 1, 2, 4, 8 and 24 h post IV bolus dose administration, and 0.25, 0.5, 1, 2, 4, 8 and 24 h post oral dose administration. Blood samples are treated with EDTA anticoagulant. Plasma is isolated by centrifugation and stored at −70° C. until analysis by LC-MS/MS. Test article concentration is determined in plasma and uploaded into the Phoenix WinNonlin system where noncompartmental analysis is used to calculate Area Under the Curve (AUC) for both IV and PO arms. Bioavailability (% F) is calculated via the following equation,
% F=(AUCPO×DoseIV)/(AUCIV×DosePO)×100

Some results are limits rather than exact numbers.

`CCn1nccc1C(=O)N[C@H](c1cn2nc(C[C@H]3C[C@@H](C(F)(F)F)CNC3=O)c(C3CCCOC3)nc2n1)[C@H]1CCCC(F)(F)C1` (single isomer, unassigned) [Compound 70]: the IC50 on IL-17A/A and at IL-17A/F was below 0.1 µM each time. The bioavailability (in general, the share of a dose that reaches the circulation, judged against a reference dose that is usually intravenous) in series [1] turned out to be 45%.

Take `CCn1nccc1C(=O)N[C@H](c1cn2nc(C[C@H]3C[C@@H](C(F)(F)F)CNC3=O)c(C3CCCOC3)nc2n1)[C@@H]1CCCC(F)(F)C1` (single isomer, unassigned) [Compound 69]: the IC50 on IL-17A/A is below 0.1 µM; at IL-17A/F, 0.1 to 1 µM. Besides, in series [1], the bioavailability was 40%.

For the compound `CC(C)n1ncnc1C(=O)N[C@H](c1cn2nc(C[C@H]3C[C@@H](C(F)(F)F)CNC3=O)c(C3CCOCC3)nc2n1)C1CCC(F)(F)CC1` [Compound 229], the results for the IC50 on IL-17A/A and at IL-17A/F were below 0.1 µM and above 1 µM, respectively. In series [1], the bioavailability turned out to be 83%.

With `CCn1nccc1C(=O)N[C@H](c1cn2nc(CC3C[C@@H](C(F)(F)F)CNC3=O)c(N3CCO[C@H](C)C3)nc2n1)[C@@H]1CCCC(F)(F)C1` (single isomer, unassigned) [Compound 122], the IC50 on IL-17A/A and at IL-17A/F was below 0.1 µM in each case. Also, in series [1], the bioavailability worked out at 51%.

For the compound `CCn1nccc1C(=O)N[C@H](c1cn2nc(C[C@H]3C[C@@H](C(F)(F)F)CNC3=O)c(C3CCOCC3)nc2n1)C1CCC(F)(F)CC1` [Compound 88, N-((1S)-(4,4-difluorocyclohexyl)(2-(((3R,5R)-2-oxo-5-(trifluoromethyl)piperidin-3-yl)methyl)-3-(tetrahydro-2H-pyran-4-yl)imidazo[1,2-b][1,2,4]triazin-6-yl)methyl)-1-ethyl-1H-pyrazole-5-carboxamide], the IC50 is below 0.1 µM on IL-17A/A and 0.1 to 1 µM at IL-17A/F. In addition, the bioavailability in series [1] came to 69%.

In the case of `Cc1nonc1C(=O)N[C@H](c1cn2nc(C[C@H]3C[C@@H](C(F)(F)F)CNC3=O)c(C3CCOCC3)nc2n1)C1CCC(F)(F)CC1` [Compound 148, N-((1S)-(4,4-difluorocyclohexyl)(2-(((3R,5R)-2-oxo-5-(trifluoromethyl)piperidin-3-yl)methyl)-3-(tetrahydro-2H-pyran-4-yl)imidazo[1,2-b][1,2,4]triazin-6-yl)methyl)-4-methyl-1,2,5-oxadiazole-3-carboxamide], the IC50 was below 0.1 µM at IL-17A/A and above 1 µM at IL-17A/F. Moreover, the bioavailability in series [1] is 91%.

`CCn1nccc1C(=O)N[C@H](c1cn2nc(C[C@H]3C[C@@H](C(F)(F)F)CNC3=O)c(C3CCOC3)nc2n1)[C@H]1CCCC(F)(F)C1` (single isomer, unassigned) [Compound 204]: the IC50 at IL-17A/A is below 0.1 µM; on IL-17A/F, 0.1 to 1 µM. In series [1], the bioavailability was determined as 27%.

Consider `O=C(N[C@H](c1cn2nc(CC3C[C@@H](C(F)(F)F)CNC3=O)c(N3CCOCC3)nc2n1)C1CCC(F)(F)CC1)c1nonc1C1CC1` (stereo partly drawn) [Compound 56], for which the values for the IC50 on IL-17A/A and at IL-17A/F were below 0.1 µM and above 1 µM, respectively. Besides, in series [1], the bioavailability worked out at 87%.

For `CCn1nccc1C(=O)N[C@H](c1cn2nc(C[C@H]3C[C@@H](C(F)(F)F)CNC3=O)c(C3CC4CCC(C3)O4)nc2n1)C1CCC(F)(F)CC1` (stereo partly drawn) [Compound 153, N-((1S)-(3-(8-oxabicyclo[3.2.1]octan-3-yl)-2-(((3R,5R)-2-oxo-5-(trifluoromethyl)piperidin-3-yl)methyl)imidazo[1,2-b][1,2,4]triazin-6-yl)(4,4-difluorocyclohexyl)methyl)-1-ethyl-1H-pyrazole-5-carboxamide], the IC50 on IL-17A/A is below 0.1 µM; on IL-17A/F it was 0.1 to 1 µM. The bioavailability in series [1] stood at 43%.

In the case of `CCn1nccc1C(=O)N[C@H](c1cn2nc(C[C@H]3C[C@@H](C(F)(F)F)CNC3=O)c(C(C)(C)F)nc2n1)C1CCC(F)(F)CC1` [Compound 216, N-((1S)-(4,4-difluorocyclohexyl)(3-(2-fluoropropan-2-yl)-2-(((3R,5R)-2-oxo-5-(trifluoromethyl)piperidin-3-yl)methyl)imidazo[1,2-b][1,2,4]triazin-6-yl)methyl)-1-ethyl-1H-pyrazole-5-carboxamide], the IC50 on IL-17A/A is below 0.1 µM; on IL-17A/F it was 0.1 to 1 µM.

Regarding `CCn1nccc1C(=O)N[C@H](c1cn2nc(C[C@@H]3C[C@@H](C)CNC3=O)c(C3CCOCC3)nc2n1)C1CCC(F)(F)CC1` [Compound 304], the IC50 at IL-17A/A was below 0.1 µM; on IL-17A/F, above 1 µM.

Regarding `CCn1nccc1C(=O)N[C@H](c1cn2nc(C[C@H]3C[C@@H](C(F)(F)F)CNC3=O)c(CN3CCOC(C)C3)nc2n1)C1CCC(F)(F)CC1` (stereo partly drawn) [Compound 349, N-((1S)-(4,4-difluorocyclohexyl)(3-((2-methylmorpholino)methyl)-2-(((3R,5R)-2-oxo-5-(trifluoromethyl)piperidin-3-yl)methyl)imidazo[1,2-b][1,2,4]triazin-6-yl)methyl)-1-ethyl-1H-pyrazole-5-carboxamide], the values for the IC50 on IL-17A/A and at IL-17A/F were below 0.1 µM and above 1 µM, respectively.

Values taken from patent US20260226068A1, “IMIDAZOTRIAZINE IL-17A MODULATORS AND USES THEREOF” (DICE ALPHA, INC., priority 2023, published 2026).
